The term EC50 denotes the concentration at which the effect is half-maximal. By amount remaining is commonly meant the share of the starting amount still present when the sample was taken. Low readings indicate a greater loss, high ones greater stability.

Data set [1] deals with human glucagon receptor (hGCGR) (Homo sapiens, UniProt P47871). Description: cAMP production (HTRF) in CHO cells expressing hGCGR. The conditions noted are these: Table 6, peptides modified at position 17; cAMP in CHO hGCGR cells; geometric mean; read-out: hGluc-R EC50. Format: cell-based. The arrangement: expressed in transfected cells. The gist of the method: (§1)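 Read-out: HTRF cAMP (anti-cAMP cryptate donor, cAMP-d2 acceptor in conjugate/lysis buffer), converted to % Delta F and fitted by 4-parameter logistic for EC50. Cell densities were 1×10^5 cells/mL (hGLP-1R) or 2×10^5 cells/mL (hGCGR). Stimulation lasted 30 min at room temperature.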
On the technique in general: Changes in cAMP serve as a functional read-out for many G protein-coupled receptors.

In data set [2] the target is human GLP-1 receptor (hGLP-1R) (Homo sapiens, UniProt P43220). Description: cAMP production (HTRF) in CHO cells expressing hGLP-1R. Also on record: expressed in transfected cells. Format: cell-based. The settings on record: for EC50: Table 6, peptides modified at position 17, cAMP in CHO hGLP-1R cells, geometric mean, read-out: hGLP-1R EC50; for % Relative Potency Ratio: Table 6, % GLP-1R activity relative to GLP-1 / % GlucR activity relative to glucagon. An outline of the steps: as §1

A short description of data set [3]: Proteolytic resistance to FasSSIF/Pancreatin. The settings on record: simulated intestinal fluid. Format: in vitro ADME. The method, then: A fresh suspension of FasSSIF/P (Fasted-State Simulated Intestinal Fluid+USP Pancreatin®) was prepared according to that described by Galia, Nicolaides, Hörter, Löbenberg, Reppas and Dressman: Pharm. Res. 15 (1998) 698-705, and USP XL requirements. The resulting preparation was used immediately without storage.
Peptide for evaluation (1.0 mg) was dissolved in pre-warmed FasSSIF without Pancreatin® (200 μL). To this fresh FasSSIF/Pancreatin® (100 μL) was added to initiate potential proteolysis. Following momentary vortexing of the reaction tube the mixture was incubated at 37° C. in a thermostatic water bath for the duration of the experiment. 25 μL aliquot of the co-incubated peptide-enzyme mixture was periodically withdrawn (t=0, 5, 10 15 and 30 min) and quenched immediately by addition to a solution of 10% TFA in 1:1 water/acetonitrile (75 μL) to arrest proteolytic activity. Quenched samples were centrifuged (7800 RPM, 3 mins) to pellet solids and 10 μL aliquots of the supernatant solution were analyzed using analytical RP-HPLC as follows: Analytical RP-HPLC method: Agilent Polaris C8-A column (4.6×100 mm, 3 micron) eluted with a linear binary gradient of 10-90% MeCN (0.1% TFA v/v) in water (0.1% TFA v/v) over either 10 or 15 mins at 1.5 mL min^−1 at 40° C. with detection by UV absorption at 210 nm. Manual integration (AUC) allowed estimation of remaining intact peptide over the time course of the experiment.

Starred links: 1 amine or outer side, 2 acyl side, 3 side chain; linkers in the order of their positions; H or OH if unused. Non-standard residues stand in square brackets, D forms with d. Residues, ends and D or L forms follow the SMILES beside them. Groups on a side chain read outwards from the residue. *: point of attachment. Dip = N[C@H](C(=O)O)C(c1ccccc1)c1ccccc1; γGlu = O=C(O)[C@H](CCC(=O)[*:2])N[*:1]; Stearoyl = CCCCCCCCCCCCCCCCCC(=O)*; αMeF = C[C@](N)(Cc1ccccc1)C(=O)O; Cha = N[C@@H](CC1CCCCC1)C(=O)O; PEG2 = NCCOCCOCCC(=O)O; Aib = CC(C)(N)C(=O)O

Chain of human glucagon receptor (hGCGR) (P47871 26-477): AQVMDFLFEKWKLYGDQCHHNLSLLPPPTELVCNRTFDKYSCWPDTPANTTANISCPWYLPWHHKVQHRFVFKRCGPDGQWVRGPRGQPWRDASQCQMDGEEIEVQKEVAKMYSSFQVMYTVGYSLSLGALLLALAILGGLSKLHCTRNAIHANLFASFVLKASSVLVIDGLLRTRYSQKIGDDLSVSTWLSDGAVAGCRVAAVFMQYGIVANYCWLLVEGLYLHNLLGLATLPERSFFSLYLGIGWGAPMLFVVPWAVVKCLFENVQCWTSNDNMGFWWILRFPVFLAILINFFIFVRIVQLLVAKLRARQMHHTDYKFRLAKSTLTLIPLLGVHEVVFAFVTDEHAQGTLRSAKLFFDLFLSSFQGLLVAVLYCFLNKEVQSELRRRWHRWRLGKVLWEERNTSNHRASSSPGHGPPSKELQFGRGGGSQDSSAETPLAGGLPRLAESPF
Chain of human GLP-1 receptor (hGLP-1R) (P43220 24-463): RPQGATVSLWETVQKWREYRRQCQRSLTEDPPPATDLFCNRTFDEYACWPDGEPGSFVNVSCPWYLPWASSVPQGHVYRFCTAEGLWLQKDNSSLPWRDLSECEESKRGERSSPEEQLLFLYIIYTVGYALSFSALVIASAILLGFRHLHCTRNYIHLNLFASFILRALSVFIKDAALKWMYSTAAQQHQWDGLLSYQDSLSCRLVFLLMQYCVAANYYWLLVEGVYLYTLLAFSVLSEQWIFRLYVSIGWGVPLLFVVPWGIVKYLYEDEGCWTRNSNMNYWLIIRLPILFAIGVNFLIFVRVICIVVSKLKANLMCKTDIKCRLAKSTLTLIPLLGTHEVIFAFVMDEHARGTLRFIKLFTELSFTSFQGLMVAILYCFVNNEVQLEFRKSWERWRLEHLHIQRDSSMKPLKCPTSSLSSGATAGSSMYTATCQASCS

Consider `CCCCCCCCCCCCCCCCCC(=O)N[C@@H](CCC(=O)N[C@@H](CCC(=O)NCCOCCOCCC(=O)NCCOCCOCCC(=O)NCCCC[C@H](NC(=O)[C@H](CO)NC(=O)[C@H](CC(=O)O)NC(=O)[C@H](CC(C)C)NC(=O)[C@@H](NC(=O)[C@H](CCCCN)NC(=O)[C@H](CO)NC(=O)[C@@H](NC(=O)[C@H](CC(=O)O)NC(=O)[C@H](CO)NC(=O)[C@@H](NC(=O)[C@](C)(Cc1ccccc1)NC(=O)[C@H](CO)NC(=O)CNC(=O)[C@H](CCC(N)=O)NC(=O)[C@H](CO)NC(=O)[C@@H](N)Cc1c[nH]cn1)[C@@H](C)O)C(C)C)C(c1ccccc1)c1ccccc1)C(=O)N[C@@H](C)C(=O)N[C@@H](C)C(=O)N[C@@H](CCC(N)=O)C(=O)N[C@@H](CC(=O)O)C(=O)N[C@@](C)(Cc1ccccc1)C(=O)N[C@H](C(=O)N[C@@H](CCC(=O)O)C(=O)NC(C)(C)C(=O)N[C@@H](CC(C)C)C(=O)N[C@H](C(=O)N[C@@H](CO)C(=O)NCC(N)=O)[C@@H](C)CC)C(C)C)C(=O)O)C(=O)O` [Peptide 48] (H-HSQGS[αMeF]TSDVSK[Dip]LDSK([PEG2-PEG2-γGlu-γGlu-Stearoyl])AAQD[αMeF]VE[Aib]LISG-NH2; N-terminus assumed), for which the half-maximal effective concentration (EC50) in data set [1] was determined as 0.0432 nM. For the same compound, in data set [2], the EC50 came out at 0.0199 nM and the “% Relative Potency Ratio” value is on record as 4.3. Further, the share remaining at 0.5 h, 3.3 mg/mL in data set [3] was 94%.
Regarding `CCCCCCCCCCCCCCCCCC(=O)N[C@@H](CCC(=O)N[C@@H](CCC(=O)NCCOCCOCCC(=O)NCCOCCOCCC(=O)NCCCC[C@H](NC(=O)[C@H](CO)NC(=O)[C@H](CC(=O)O)NC(=O)[C@H](CC(C)C)NC(=O)[C@@H](NC(=O)[C@H](CCCCN)NC(=O)[C@H](CO)NC(=O)[C@@H](NC(=O)[C@H](CC(=O)O)NC(=O)[C@H](CO)NC(=O)[C@@H](NC(=O)[C@](C)(Cc1ccccc1)NC(=O)[C@H](CO)NC(=O)CNC(=O)[C@H](CCC(N)=O)NC(=O)[C@H](CO)NC(=O)[C@@H](N)Cc1c[nH]cn1)[C@@H](C)O)C(C)C)C(c1ccccc1)c1ccccc1)C(=O)N[C@@H](C)C(=O)N[C@@H](C)C(=O)N[C@@H](CCC(N)=O)C(=O)N[C@@H](CC(=O)O)C(=O)N[C@@](C)(Cc1ccccc1)C(=O)N[C@H](C(=O)N[C@@H](CCC(=O)O)C(=O)NC(C)(C)C(=O)N[C@@H](CC(C)C)C(=O)N[C@@H](CC(C)C)C(=O)N[C@@H](CC(N)=O)C(=O)N[C@H](C(N)=O)[C@@H](C)O)C(C)C)C(=O)O)C(=O)O` [Peptide 51] (H-HSQGS[αMeF]TSDVSK[Dip]LDSK([PEG2-PEG2-γGlu-γGlu-Stearoyl])AAQD[αMeF]VE[Aib]LLNT-NH2; N-terminus assumed), the results for the EC50 in data set [1] and in data set [2] were 0.0419 nM and 0.0181 nM, respectively. The “% Relative Potency Ratio” value in data set [2] worked out at 4.6. Moreover, the amount remaining at 0.5 h, 3.3 mg/mL in data set [3] was 91%.
Regarding `CCCCCCCCCCCCCCCCCC(=O)N[C@@H](CCC(=O)N[C@@H](CCC(=O)NCCOCCOCCC(=O)NCCOCCOCCC(=O)NCCCC[C@H](NC(=O)[C@H](CO)NC(=O)[C@H](CC(=O)O)NC(=O)[C@H](CC(C)C)NC(=O)[C@@H](NC(=O)[C@H](CCCCN)NC(=O)[C@H](CO)NC(=O)[C@@H](NC(=O)[C@H](CC(=O)O)NC(=O)[C@H](CO)NC(=O)[C@@H](NC(=O)[C@](C)(Cc1ccccc1)NC(=O)[C@H](CO)NC(=O)CNC(=O)[C@H](CCC(N)=O)NC(=O)[C@H](CO)NC(=O)[C@@H](N)Cc1c[nH]cn1)[C@@H](C)O)C(C)C)C(c1ccccc1)c1ccccc1)C(=O)N[C@@H](C)C(=O)N[C@@H](C)C(=O)N[C@@H](CCC(N)=O)C(=O)N[C@@H](CC(=O)O)C(=O)N[C@@](C)(Cc1ccccc1)C(=O)N[C@H](C(=O)N[C@@H](CCC(=O)O)C(=O)NC(C)(C)C(=O)N[C@@H](CC1CCCCC1)C(=O)N[C@@H](C)C(=O)N[C@@H](CC(N)=O)C(=O)N[C@H](C(N)=O)[C@@H](C)O)C(C)C)C(=O)O)C(=O)O` [Peptide 52] (H-HSQGS[αMeF]TSDVSK[Dip]LDSK([PEG2-PEG2-γGlu-γGlu-Stearoyl])AAQD[αMeF]VE[Aib][Cha]ANT-NH2; N-terminus assumed), the EC50 in data set [1] came to 0.00665 nM. Further, in data set [2], the EC50 worked out at 0.0227 nM and the “% Relative Potency Ratio” value was 0.6. Moreover, the share remaining at 0.5 h, 3.3 mg/mL in data set [3] was 90%.
The corresponding values for `CCCCCCCCCCCCCCCCCC(=O)N[C@@H](CCC(=O)N[C@@H](CCC(=O)NCCOCCOCCC(=O)NCCOCCOCCC(=O)NCCCC[C@H](NC(=O)[C@H](CO)NC(=O)[C@H](CC(=O)O)NC(=O)[C@H](CC(C)C)NC(=O)[C@@H](NC(=O)[C@H](CCCCN)NC(=O)[C@H](CO)NC(=O)[C@@H](NC(=O)[C@H](CC(=O)O)NC(=O)[C@H](CO)NC(=O)[C@@H](NC(=O)[C@](C)(Cc1ccccc1)NC(=O)[C@H](CO)NC(=O)CNC(=O)[C@H](CCC(N)=O)NC(=O)[C@H](CO)NC(=O)[C@@H](N)Cc1c[nH]cn1)[C@@H](C)O)C(C)C)C(c1ccccc1)c1ccccc1)C(=O)N[C@@H](C)C(=O)N[C@@H](C)C(=O)N[C@@H](CCC(N)=O)C(=O)N[C@@H](CC(=O)O)C(=O)N[C@@](C)(Cc1ccccc1)C(=O)N[C@H](C(=O)N[C@@H](CCC(=O)O)C(=O)NC(C)(C)C(=O)N[C@H](C(=O)N[C@H](C(=O)N[C@@H](CCC(=O)O)C(=O)NCC(=O)NCC(N)=O)C(C)C)C(C)C)C(C)C)C(=O)O)C(=O)O` [Peptide 53] (H-HSQGS[αMeF]TSDVSK[Dip]LDSK([PEG2-PEG2-γGlu-γGlu-Stearoyl])AAQD[αMeF]VE[Aib]VVEGG-NH2) are 0.0189 nM, 0.00303 nM, 12.3 and 92%.
For the compound `CCCCCCCCCCCCCCCCCC(=O)N[C@@H](CCC(=O)N[C@@H](CCC(=O)NCCOCCOCCC(=O)NCCOCCOCCC(=O)NCCCC[C@H](NC(=O)[C@H](CO)NC(=O)[C@H](CC(=O)O)NC(=O)[C@H](CC(C)C)NC(=O)[C@@H](NC(=O)[C@H](CCCCN)NC(=O)[C@H](CO)NC(=O)[C@@H](NC(=O)[C@H](CC(=O)O)NC(=O)[C@H](CO)NC(=O)[C@@H](NC(=O)[C@](C)(Cc1ccccc1)NC(=O)[C@H](CO)NC(=O)CNC(=O)[C@H](CCC(N)=O)NC(=O)[C@H](CO)NC(=O)[C@@H](N)Cc1c[nH]cn1)[C@@H](C)O)C(C)C)[C@@H](C)CC)C(=O)N[C@@H](C)C(=O)N[C@@H](C)C(=O)N[C@@H](CCC(N)=O)C(=O)N[C@@H](CC(=O)O)C(=O)N[C@@](C)(Cc1ccccc1)C(=O)N[C@H](C(=O)N[C@@H](CCC(N)=O)C(=O)NC(C)(C)C(=O)N[C@H](C(=O)N[C@H](C(=O)N[C@@H](CC(N)=O)C(=O)N[C@H](C(N)=O)[C@@H](C)O)[C@@H](C)CC)[C@@H](C)CC)C(C)C)C(=O)O)C(=O)O` [Peptide 117] (H-HSQGS[αMeF]TSDVSKILDSK([PEG2-PEG2-γGlu-γGlu-Stearoyl])AAQD[αMeF]VQ[Aib]IINT-NH2; N-terminus assumed), the EC50 in data set [1] was 0.00185 nM. Also, in data set [2], the EC50 was 0.0014 nM and the “% Relative Potency Ratio” value is recorded as 2.6. Further, in data set [3], the share remaining at 5 min, 3.3 mg/mL was 54%; the amount remaining at 10 min, 3.3 mg/mL was 35%; the amount remaining at 0.25 h, 3.3 mg/mL is 22%; the share remaining at 0.5 h, 3.3 mg/mL was 8%.

Values taken from patent US20250353891A1 (MEDIMMUNE LIMITED, priority 2022, published 2025).
